Measured values published in ChEMBL document CHEMBL1201862, “PubChem BioAssay data set” (2004).
Activity calls are given as the source filed them. Rule as the data show it, for most assays here: actives have a measured IC50 and inactives only a lower limit.

Tests used:
[1] = target: T1, Caspase-3 (Homo sapiens, UniProt P42574); type: functional;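 also: Dose-response selectivity test against caspase-3 for candidate inhibitors of sentrin-specific proteases (SENPs)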
T1 sequence (P42574 whole entry): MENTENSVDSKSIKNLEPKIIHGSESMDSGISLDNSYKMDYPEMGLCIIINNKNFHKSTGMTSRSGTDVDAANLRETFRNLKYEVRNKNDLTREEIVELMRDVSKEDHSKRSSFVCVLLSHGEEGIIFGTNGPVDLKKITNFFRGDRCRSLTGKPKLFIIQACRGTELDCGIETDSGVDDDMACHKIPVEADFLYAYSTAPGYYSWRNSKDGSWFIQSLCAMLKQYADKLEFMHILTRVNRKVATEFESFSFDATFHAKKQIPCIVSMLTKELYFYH

[2] = target: T2, Sentrin-specific protease 6 (Homo sapiens, UniProt Q9GZR1); type: functional;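 also: Luminescence-based dose-response confirmatory assay of SENP6 inhibition, following up an ultra-high-throughput screen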
T2 sequence (Q9GZR1 whole entry): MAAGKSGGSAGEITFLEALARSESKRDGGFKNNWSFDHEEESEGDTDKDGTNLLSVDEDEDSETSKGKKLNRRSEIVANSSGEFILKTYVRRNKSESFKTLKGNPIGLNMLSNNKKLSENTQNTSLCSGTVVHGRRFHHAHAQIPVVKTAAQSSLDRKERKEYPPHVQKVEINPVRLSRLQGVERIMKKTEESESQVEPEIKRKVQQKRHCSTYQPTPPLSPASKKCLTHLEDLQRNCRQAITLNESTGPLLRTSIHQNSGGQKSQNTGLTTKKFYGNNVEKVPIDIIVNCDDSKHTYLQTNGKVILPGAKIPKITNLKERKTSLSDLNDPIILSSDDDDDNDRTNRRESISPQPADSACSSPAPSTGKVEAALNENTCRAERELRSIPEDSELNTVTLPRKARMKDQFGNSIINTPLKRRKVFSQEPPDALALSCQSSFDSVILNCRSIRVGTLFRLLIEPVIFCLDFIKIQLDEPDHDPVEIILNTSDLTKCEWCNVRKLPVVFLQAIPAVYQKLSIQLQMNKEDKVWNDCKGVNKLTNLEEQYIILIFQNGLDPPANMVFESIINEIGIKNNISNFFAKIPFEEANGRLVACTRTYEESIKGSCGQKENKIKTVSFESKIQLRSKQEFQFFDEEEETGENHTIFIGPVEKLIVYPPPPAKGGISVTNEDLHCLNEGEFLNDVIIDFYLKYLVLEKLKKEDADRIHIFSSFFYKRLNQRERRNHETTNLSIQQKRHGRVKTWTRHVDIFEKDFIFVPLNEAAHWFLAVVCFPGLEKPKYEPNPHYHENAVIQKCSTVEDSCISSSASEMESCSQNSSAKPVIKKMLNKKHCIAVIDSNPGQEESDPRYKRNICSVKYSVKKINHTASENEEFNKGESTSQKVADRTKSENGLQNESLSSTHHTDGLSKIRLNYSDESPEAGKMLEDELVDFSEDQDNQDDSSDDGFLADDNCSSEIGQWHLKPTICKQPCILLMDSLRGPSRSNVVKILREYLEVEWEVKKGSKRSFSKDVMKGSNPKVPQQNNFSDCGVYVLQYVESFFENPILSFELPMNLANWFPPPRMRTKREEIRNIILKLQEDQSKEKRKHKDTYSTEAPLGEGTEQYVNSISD

[3] = target: T3, Sentrin-specific protease 8 (Homo sapiens, UniProt Q96LD8); type: functional;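 also: luminescence read-out of SENP8 inhibition, dose-response confirmation following an ultra-high-throughput screen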
T3 sequence (Q96LD8 whole entry): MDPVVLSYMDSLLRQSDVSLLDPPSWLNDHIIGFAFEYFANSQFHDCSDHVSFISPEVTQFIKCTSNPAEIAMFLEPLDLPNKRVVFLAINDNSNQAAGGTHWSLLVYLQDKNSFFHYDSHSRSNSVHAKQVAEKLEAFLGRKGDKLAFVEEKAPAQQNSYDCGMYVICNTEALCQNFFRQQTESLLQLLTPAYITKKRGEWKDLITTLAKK

[4] = target: T4, Sentrin-specific protease 7 (Homo sapiens, UniProt Q9BQF6); type: functional;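 also: Luminescence-based dose-response confirmation of ultra-high-throughput screening hits, measuring inhibition of SENP7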
T4 sequence (Q9BQF6 whole entry): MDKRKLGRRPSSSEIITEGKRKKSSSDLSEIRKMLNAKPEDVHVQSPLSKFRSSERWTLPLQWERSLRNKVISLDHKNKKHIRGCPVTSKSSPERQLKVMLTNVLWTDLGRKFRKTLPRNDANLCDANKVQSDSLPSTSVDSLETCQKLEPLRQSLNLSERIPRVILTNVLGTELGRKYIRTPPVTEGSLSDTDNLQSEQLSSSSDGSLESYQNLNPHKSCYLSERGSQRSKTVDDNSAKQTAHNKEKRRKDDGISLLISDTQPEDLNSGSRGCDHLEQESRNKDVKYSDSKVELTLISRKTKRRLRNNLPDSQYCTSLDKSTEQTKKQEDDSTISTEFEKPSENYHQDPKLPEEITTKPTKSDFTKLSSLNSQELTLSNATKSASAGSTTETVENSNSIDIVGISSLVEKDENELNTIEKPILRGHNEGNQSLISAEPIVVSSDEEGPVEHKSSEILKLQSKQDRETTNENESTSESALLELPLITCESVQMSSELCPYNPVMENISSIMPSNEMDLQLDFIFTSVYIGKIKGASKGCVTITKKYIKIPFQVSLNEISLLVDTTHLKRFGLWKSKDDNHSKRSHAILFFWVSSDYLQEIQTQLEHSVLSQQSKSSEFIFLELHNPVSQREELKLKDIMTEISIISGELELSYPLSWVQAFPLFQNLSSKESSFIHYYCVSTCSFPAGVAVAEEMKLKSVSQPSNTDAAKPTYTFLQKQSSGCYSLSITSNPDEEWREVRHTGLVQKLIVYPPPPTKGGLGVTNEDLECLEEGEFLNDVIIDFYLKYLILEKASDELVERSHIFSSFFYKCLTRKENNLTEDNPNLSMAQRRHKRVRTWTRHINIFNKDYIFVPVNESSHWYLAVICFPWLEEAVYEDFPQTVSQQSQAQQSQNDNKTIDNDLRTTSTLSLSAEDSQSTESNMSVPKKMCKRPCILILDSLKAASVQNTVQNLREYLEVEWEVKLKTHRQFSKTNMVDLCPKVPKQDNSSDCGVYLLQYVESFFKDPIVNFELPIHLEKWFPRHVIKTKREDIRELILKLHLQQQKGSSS

[5] = A549 cell cytotoxicity, dose response, cytotoxicity control, plate reader, cherry-pick, antagonist series (AID 743412); type: functional, cell-based

Structure (SMILES) | IC50 [1] | IC50 [2] | IC50 [3] | IC50 [4] | AC50 [5]
O=C1c2ccccc2C(=O)C12OC2c1cccc2ccccc12 (centres undefined) | 91.9 µM (active) | 2.37 µM (active) | 4.53 µM (active) | 2.86 µM (active) | 
CCC(COC)Oc1cc(NCc2ccccc2)c2ncn(C(C)C)c2c1 (centres undefined) | 6.47 µM (active) | 3.62 µM (active) | 4.26 µM (active) | 5.61 µM (active) | 26.1 µM (active)
O=c1[nH]c(N2CCOCC2)cc2ccccc12 | 1.59 µM (active) | < 1.55 µM (active) | 2.12 µM (active) | 1.96 µM (active) | 
O=[N+]([O-])c1ccc(Sc2nc3ccccc3o2)c([N+](=O)[O-])c1 |  |  |  |  | 6.63 µM (active)
